Source: US10258603B2 (priority 2014, dated 2019)

target: T1, TAF1-BD2 (Homo sapiens, UniProt P21675); assay: TAF1-BD2 TR-FRET Binding Assay; settings: Assay: TAF-1
T1 sequence (P21675 1525-1656): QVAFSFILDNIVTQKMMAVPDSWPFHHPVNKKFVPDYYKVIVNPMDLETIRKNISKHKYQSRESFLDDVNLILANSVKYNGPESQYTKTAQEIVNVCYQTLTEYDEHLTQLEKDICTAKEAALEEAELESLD
Description: Specifically, in a 384 well ProxiPlate TAF1-BD2 (6 nM final) was combined with biotin-ligand (50 nM final) in 50 mM HEPES (pH 7.5), 50 mM NaCl, 1 mM TCEP, 0.01% (w/v) BSA, and 0.008% (w/v) Brij-35 either in the presence of DMSO (final 0.2% DMSO) or compound dilution series in DMSO. After 10 minutes incubation at room temperature, a mixture Eu-W1024 Anti-6×His antibody (Perkin Elmer AD0110) and SureLight™ Allophycocyanin-Streptavidin (APC-SA, Perkin Elmer CR130-100) were added to a final concentrations of 0.2 nMolar antibody and 25 nMolar APC-SA, respectively. After twenty minutes of equilibration, the plates were read on an Envision instrument and IC50s calculated using a four parameter non-linear curve fit.

| IC50 [nM] | Molecule |
| --- | --- |
| 3900 | Cn1cc(C(=O)N2CCC(c3cccc(F)c3)CC2)c2cc[nH]c2c1=O [Example 49, 4-[4-(3-fluorophenyl)piperidine-1-carbonyl]-6-methyl-1H-pyrrolo[2,3-c]pyridin-7-one] |
| 4400 | Cn1cc(C(=O)N2CCC(c3cnccn3)CC2)c2cc[nH]c2c1=O [Example 51, 6-methyl-4-(4-pyrazin-2-ylpiperidine-1-carbonyl)-1H-pyrrolo[2,3-c]pyridin-7-one] |
| 7100 | CN(C1CCCCC1)C1CCN(C(=O)c2cn(C)c(=O)c3[nH]ccc23)CC1 [Example 52, 4-[4-[cyclohexyl(methyl)amino]piperidine-1-carbonyl]-6-methyl-1H-pyrrolo[2,3-c]pyridin-7-one] |
| 8200 | Cn1cc(C(=O)N2CCC(F)CC2)c2cc[nH]c2c1=O [Example 53, 4-(4-fluoropiperidine-1-carbonyl)-6-methyl-1H-pyrrolo[2,3-c]pyridin-7-one] |
| 2900 | Cn1cc(C(=O)N2CCC(CCNS(C)(=O)=O)CC2)c2cc[nH]c2c1=O [Example 54, N-[2-[1-(6-methyl-7-oxo-1H-pyrrolo[2,3-c]pyridine-4-carbonyl)-4-piperidyl]ethyl]methanesulfonamide] |
| 2500 | Cn1cc(C(=O)N2CCC(c3ccncn3)CC2)c2cc[nH]c2c1=O [Example 56, 6-methyl-4-(4-pyrimidin-4-ylpiperidine-1-carbonyl)-1H-pyrrolo[2,3-c]pyridin-7-one] |
| 1500 | Cn1cc(C(=O)N2CCC(Cc3ccccn3)CC2)c2cc[nH]c2c1=O [Example 58, 6-methyl-4-[4-(2-pyridylmethyl)piperidine-1-carbonyl]-1H-pyrrolo[2,3-c]pyridin-7-one] |
| 4700 | Cn1cc(C(=O)N2CCC(N3CCOCC3)CC2)c2cc[nH]c2c1=O [Example 63, 6-methyl-4-(4-morpholinopiperidine-1-carbonyl)-1H-pyrrolo[2,3-c]pyridin-7-one] |
| 6400 | Cn1cc(C(=O)N2CCCCC2)c2cc[nH]c2c1=O [Example 70, 6-methyl-4-(piperidine-1-carbonyl)-1H-pyrrolo[2,3-c]pyridin-7-one] |
| 3000 | Cn1cc(C(=O)N2CCC(c3ccccc3)CC2)c2cc[nH]c2c1=O [Example 71, 6-methyl-4-(4-phenylpiperidine-1-carbonyl)-1H-pyrrolo[2,3-c]pyridin-7-one] |
| 7000 | CCCN1CCC(N(C(=O)c2cn(C)c(=O)c3[nH]ccc23)C2CC2)CC1 [Example 82, N-cyclopropyl-6-methyl-7-oxo-N-(1-propyl-4-piperidyl)-1H-pyrrolo[2,3-c]pyridine-4-carboxamide] |
| 670 | Cn1cc(C(=O)NCC2CCCC2)c2cc[nH]c2c1=O [Example 83, N-(cyclopentylmethyl)-6-methyl-7-oxo-1H-pyrrolo[2,3-c]pyridine-4-carboxamide] |
| 5700 | COCCN(C(=O)c1cn(C)c(=O)c2[nH]ccc12)C1CCN(C)CC1 [Example 84] |
| 1700 | Cn1cc(C(=O)NCC2CCCOC2)c2cc[nH]c2c1=O (stereo not shown) [Example 100] |
| 1200 | Cn1cc(C(=O)NCC2CN(C(=O)OC(C)(C)C)C2)c2cc[nH]c2c1=O [Example 130] |
| 850 | Cn1cc(C(=O)NCC2CCN(C(=O)OC(C)(C)C)CC2)c2cc[nH]c2c1=O [Example 133] |
| 1300 | Cn1cc(C(=O)NCC2CCCN(C(=O)OC(C)(C)C)C2)c2cc[nH]c2c1=O (stereo not shown) [Example 135] |
| 510 | Cn1cc(C(=O)NCC2CCN(C(=O)OC(C)(C)C)C2)c2cc[nH]c2c1=O (stereo not shown) [Example 137] |
| 440 | Cn1cc(C(=O)NC2CCN(c3ccncn3)CC2)c2cc[nH]c2c1=O [Example 148, 6-methyl-7-oxo-N-(1-pyrimidin-4-yl-4-piperidyl)-1H-pyrrolo[2,3-c]pyridine-4-carboxamide] |
| 320 | Cc1cnc(N2CCC(NC(=O)c3cn(C)c(=O)c4[nH]ccc34)CC2)nc1 [Example 149, 6-methyl-N-[1-(5-methylpyrimidin-2-yl)-4-piperidyl]-7-oxo-1H-pyrrolo[2,3-c]pyridine-4-carboxamide] |
| 360 | Cc1ccnc(N2CCC(NC(=O)c3cn(C)c(=O)c4[nH]ccc34)CC2)n1 [Example 150, 6-methyl-N-[1-(4-methylpyrimidin-2-yl)-4-piperidyl]-7-oxo-1H-pyrrolo[2,3-c]pyridine-4-carboxamide] |
| 550 | Cn1cc(C(=O)NC2CCN(c3cnccn3)CC2)c2cc[nH]c2c1=O [Example 151, 6-methyl-7-oxo-N-(1-pyrazin-2-yl-4-piperidyl)-1H-pyrrolo[2,3-c]pyridine-4-carboxamide] |

| IC50 [nM] | Molecule |
| --- | --- |
| 570 | Cn1cc(C(=O)NC2CCN(c3ncc(C#N)cn3)CC2)c2cc[nH]c2c1=O [Example 152, N-[1-(5-cyanopyrimidin-2-yl)-4-piperidyl]-6-methyl-7-oxo-1H-pyrrolo[2,3-c]pyridine-4-carboxamide] |
| 490 | Cn1cc(C(=O)NC2CCN(c3nccc(C(F)(F)F)n3)CC2)c2cc[nH]c2c1=O [Example 153, 6-methyl-7-oxo-N-[1-[4-(trifluoromethyl)pyrimidin-2-yl]-4-piperidyl]-1H-pyrrolo[2,3-c]pyridine-4-carboxamide] |
| 530 | Cn1cc(C(=O)NC2CCN(c3ncc(F)cn3)CC2)c2cc[nH]c2c1=O [Example 154, N-[1-(5-fluoropyrimidin-2-yl)-4-piperidyl]-6-methyl-7-oxo-1H-pyrrolo[2,3-c]pyridine-4-carboxamide] |
| 330 | Cn1cc(C(=O)NC2CCN(c3cccnn3)CC2)c2cc[nH]c2c1=O [Example 155, 6-methyl-7-oxo-N-(1-pyridazin-3-yl-4-piperidyl)-1H-pyrrolo[2,3-c]pyridine-4-carboxamide] |
| 990 | Cn1cc(C(=O)NC2CCN(c3nccc(C#N)n3)CC2)c2cc[nH]c2c1=O [Example 156, N-[1-(4-cyanopyrimidin-2-yl)-4-piperidyl]-6-methyl-7-oxo-1H-pyrrolo[2,3-c]pyridine-4-carboxamide] |
| 1600 | CN(CC1CCN(c2ncccn2)CC1)C(=O)c1cn(C)c(=O)c2[nH]ccc12 [Example 157, N,6-dimethyl-7-oxo-N-[(1-pyrimidin-2-yl-4-piperidyl)methyl]-1H-pyrrolo[2,3-c]pyridine-4-carboxamide] |
| 2100 | C=CCn1cc(C(=O)N(C)C2CCN(c3cc(CCC)ncn3)CC2)c2cc[nH]c2c1=O [Example 166, 6-allyl-N-methyl-7-oxo-N-[1-(6-propylpyrimidin-4-yl)-4-piperidyl]-1H-pyrrolo[2,3-c]pyridine-4-carboxamide] |
| 260 | Cn1cc(C(=O)NC2CCN(c3ccccc3)CC2)c2cc[nH]c2c1=O [Example 171, 6-methyl-7-oxo-N-(1-phenyl-4-piperidyl)-1H-pyrrolo[2,3-c]pyridine-4-carboxamide] |
| 160 | CC(C)c1ccc(N2CCC(N(C)C(=O)c3cn(C)c(=O)c4[nH]ccc34)CC2)cc1 [Example 180, N-[1-(4-isopropylphenyl)-4-piperidyl]-N,6-dimethyl-7-oxo-1H-pyrrolo[2,3-c]pyridine-4-carboxamide] |
| 1600 | COCCN1CCC(CN(C)C(=O)c2cn(C)c(=O)c3[nH]ccc23)CC1 [Example 193] |
| 18000 | CN(CC1CCN(Cc2cccc(Cl)c2)CC1)C(=O)c1cn(C)c(=O)c2[nH]ccc12 [Example 199] |
| 8000 | CN(CC1CCN(Cc2ccc(Cl)cc2)CC1)C(=O)c1cn(C)c(=O)c2[nH]ccc12 [Example 200, N-[[1-[(4-chloropbenyl)methyl]-4-piperidyl]methyl]-N,6-dimethyl-7-oxo-1H-pyrrolo[2,3-c]pyridine-4-carboxamide] |
| 5300 | CN1CCC(C)(NC(=O)c2cn(C)c(=O)c3[nH]ccc23)CC1 [Example 210, N-(1,4-dimethyl-4-piperidyl)-6-methyl-7-oxo-1H-pyrrolo[2,3-c]pyridine-4-carboxamide] |
| 3600 | CN(C(=O)c1cn(C)c(=O)c2[nH]ccc12)C1CCN(CC2CCCC2)CC1 [Example 219] |
| 3300 | CC(C)N1CC2C(C1)C2NC(=O)c1cn(C)c(=O)c2[nH]ccc12 (stereo not shown) [Example 228] |
| 9900 | CN(CC1CCN(CC2CCCO2)CC1)C(=O)c1cn(C)c(=O)c2[nH]ccc12 (stereo not shown) [Example 231] |
| 9900 | CN(CC1CCN(CC2CCCCO2)CC1)C(=O)c1cn(C)c(=O)c2[nH]ccc12 (stereo not shown) [Example 235] |
| 14000 | CN(CC1CCN(CC2CCOC2)CC1)C(=O)c1cn(C)c(=O)c2[nH]ccc12 (stereo not shown) [Example 236] |
| 14000 | C=CCn1cc(C(=O)N(C)C2[C@H]3CN(c4nccc(C(F)(F)F)n4)C[C@@H]23)c2cc[nH]c2c1=O (stereo partly shown) [Example 250] |
| 5000 | CN(C(=O)c1cn(C)c(=O)c2[nH]ccc12)C1CCN(CCc2ccccc2)CC1 [Example 252, N,6-dimethyl-7-oxo-N-(1-phenethyl-4-piperidyl)-1H-pyrrolo[2,3-c]pyridine-4-carboxamide] |
| 4800 | CC(CN1CCC(N(C)C(=O)c2cn(C)c(=O)c3[nH]ccc23)CC1)c1ccccc1 (stereo not shown) [Example 255] |

| Molecule | IC50 [nM] |
| --- | --- |
| N-cyclopropyl-6-methyl-N-(1-methyl-4-piperidyl)-7-oxo-1H-pyrrolo[2,3-c]pyridine-4-carboxamide [Example 81] | 710 |

target: T2, BRD9 (Homo sapiens, UniProt Q9H8M2); assay: BRD9 AlphaLisa Binding Assay; settings: not given
T2 construct: 134-239 was cloned, expressed, and purified to homogeneity; Flag; made in house
T2 sequence (Q9H8M2 134-239 limits assumed): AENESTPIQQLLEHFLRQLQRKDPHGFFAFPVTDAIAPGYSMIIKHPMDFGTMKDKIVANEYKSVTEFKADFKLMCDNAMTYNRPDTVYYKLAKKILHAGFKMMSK
Description: IC50 Measurements for Inhibitors Using BRD9 AlphaLisa Binding Assay His/Flag epitope tagged BRD9134-239 was cloned, expressed, and purified to homogeneity. […] After 20 minutes incubation at room temperature AlphaLisa Streptavidin Acceptor Beads (Perkin-A[…]) and AlphaLisa Nickel donor beads (Perkin AS 10 ID) were added to a final concentration of 15 ug/mL each.

| IC50 [nM] | Molecule |
| --- | --- |
| 3000 | CN(C)CCNC(=O)c1cn(C)c(=O)c2[nH]ccc12 [Example 1, N-(2-dimethylaminoethyl)-6-methyl-7-oxo-1H-pyrrolo[2,3-c]pyridine-4-carboxamide] |
| 3500 | CN1CCC(CNC(=O)c2cn(C)c(=O)c3[nH]ccc23)CC1 [Example 3, 6-methyl-N-[(1-methyl-4-piperidyl)methyl]-7-oxo-1H-pyrrolo[2,3-c]pyridine-4-carboxamide] |
